The source made the active and inactive calls. The calls are words filed in the database; no cut-off is given here.
Experiments:
Jurkat = test: Antiproliferative activity against human Jurkat cells assessed as inhibition of cell growth incubated for 72 hrs by MTT assay; format: functional, cell-based
K562 = test: Antiproliferative activity against human K562 cells assessed as inhibition of cell growth incubated for 72 hrs by MTT assay; format: functional, cell-based; conditions: K562, 72 h
HeLa = test: Antiproliferative activity against human HeLa cells assessed as inhibition of cell growth incubated for 72 hrs by MTT assay; format: functional, cell-based
MCF7 = test: Antiproliferative activity against human MCF7 cells assessed as inhibition of cell growth incubated for 72 hrs by MTT assay; format: functional, cell-based; conditions: MCF7, 72 h
HL-60 = test: Antiproliferative activity against human HL-60 cells assessed as inhibition of cell growth incubated for 72 hrs by MTT assay; format: functional, cell-based; conditions: HL-60, 72 h
A549 = test: Antiproliferative activity against human A549 cells assessed as inhibition of cell growth incubated for 72 hrs by MTT assay; format: functional, cell-based; conditions: A549, 72 h
[1] = Antiproliferative activity against human MRC5 cells assessed as inhibition of cell growth incubated for 72 hrs by MTT assay; format: toxicity, cell-based
Raji = test: Antiproliferative activity against human Raji cells assessed as inhibition of cell growth incubated for 72 hrs by MTT assay; format: functional, cell-based
MDA-MB-231 = test: Antiproliferative activity against human MDA-MB-231 cells assessed as inhibition of cell growth incubated for 72 hrs by MTT assay; format: functional, cell-based; conditions: MDA-MB-231, 72 h
Escherichia coli [2] = test: Antimicrobial activity against Escherichia coli ZPM 132 assessed as reduction in cell viability incubated for 24 hrs by muller hinton broth microdilution based XTT assay; format: functional
Streptococcus pneumoniae = test: Antibacterial activity against Streptococcus pneumoniae ZPM 187 assessed as reduction in cell viability incubated for 24 hrs by muller hinton broth microdilution based XTT assay; format: functional
Vibrio cholerae = test: Antibacterial activity against Vibrio cholerae O139 CIRS 245 assessed as reduction in cell viability incubated for 24 hrs by muller hinton broth microdilution based XTT assay; format: functional
[3] = biological target: Cholinesterase (Homo sapiens) (UniProt P06276); test: Inhibition of human BChE at 100 uM using acetylthiocholine iodide as substrate by DTNB reagent based Ellman spectrophotometric analysis relative to control
Candida tropicalis = test: Antifungal activity against Candida tropicalis CCY 29-7-62 assessed as reduction in fungal growth incubated for 48 hrs by muller hinton broth microdilution based XTT assay; format: functional
Escherichia coli [4] = test: Antibacterial activity against Escherichia coli ZPM 132 assessed as reduction in cell viability incubated for 24 hrs by muller hinton broth microdilution based XTT assay; format: functional

Sequence of Cholinesterase (Homo sapiens) (P06276 whole entry): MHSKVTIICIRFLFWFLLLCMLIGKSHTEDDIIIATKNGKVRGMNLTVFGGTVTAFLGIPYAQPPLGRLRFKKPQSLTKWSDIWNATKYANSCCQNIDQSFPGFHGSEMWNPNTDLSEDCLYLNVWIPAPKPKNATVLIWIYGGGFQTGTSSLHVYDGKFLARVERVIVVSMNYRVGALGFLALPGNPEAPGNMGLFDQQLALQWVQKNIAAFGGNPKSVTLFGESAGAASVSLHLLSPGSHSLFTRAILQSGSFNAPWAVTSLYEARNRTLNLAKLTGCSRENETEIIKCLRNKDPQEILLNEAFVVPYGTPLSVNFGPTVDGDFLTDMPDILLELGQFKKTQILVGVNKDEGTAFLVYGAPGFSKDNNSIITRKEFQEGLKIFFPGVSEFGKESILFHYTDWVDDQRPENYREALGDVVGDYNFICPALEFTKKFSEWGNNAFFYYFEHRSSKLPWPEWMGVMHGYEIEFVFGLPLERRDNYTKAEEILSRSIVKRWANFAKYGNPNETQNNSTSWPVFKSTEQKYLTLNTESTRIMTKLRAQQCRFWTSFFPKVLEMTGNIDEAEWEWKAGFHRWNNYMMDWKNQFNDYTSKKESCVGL

SMILES | IC50 (Jurkat) | IC50 (K562) | IC50 (HeLa) | IC50 (MCF7) | IC50 (HL-60) | IC50 (A549) | IC50 at 72 h [1] | IC50 (Raji) | IC50 (MDA-MB-231) | MIC (Escherichia coli [2]) | MBC (Streptococcus pneumoniae) | MBC (Vibrio cholerae) | inhibition [3] | MFC (Candida tropicalis) | MBC (Escherichia coli [4])
CO[C@H]1CC(=O)O[C@H]1[C@H](OC(C)=O)[C@H](COC(=O)c1ccccc1)OC(C)=O | 14 µM | 8.23 µM | 7.02 µM | 5.21 µM | 21 µM | 8.32 µM | > 100 µM | 11.2 µM | 16.1 µM | – | – | – | – | – | –
CO[C@H]1CC(=O)O[C@H]1[C@H](O)[C@H](O)COC(=O)c1ccccc1 | 16.5 µM | 3.97 µM | 16 µM | 14.1 µM | 9.45 µM | 18.7 µM | > 100 µM | 19.7 µM | 45.2 µM | > 1000 µg/mL | > 100 µg/mL | > 100 µg/mL | inactive | > 100 µg/mL | > 1000 µg/mL
CO[C@@H]1CC(=O)O[C@@H]1[C@@H](OC(C)=O)[C@H](COC(=O)c1ccccc1)OC(C)=O | 26.3 µM | 12 µM | 2.45 µM | 5.4 µM | 11 µM | 25.4 µM | 94.8 µM | 22.3 µM | 21.7 µM | > 1000 µg/mL | > 100 µg/mL | > 100 µg/mL | 35% | > 100 µg/mL | > 1000 µg/mL
Nc1c2c(nc3ccccc13)CCCC2 | – | – | – | – | – | – | – | – | – | – | – | – | 96% | – | –
C=C[C@H](O)[C@H]1OC(=O)C[C@H]1OC | 12.8 µM | 8.05 µM | 10.9 µM | 4.23 µM | 11.7 µM | 28.3 µM | > 100 µM | 32.9 µM | 11.8 µM | > 1000 µg/mL | > 100 µg/mL | > 100 µg/mL | inactive | > 100 µg/mL | > 1000 µg/mL
CO[C@@H]1CC(=O)O[C@@H]1[C@@H](O)[C@H](O)COC(=O)c1ccccc1 | 15.6 µM | 10.6 µM | 8.61 µM | 15.6 µM | 18.9 µM | 25.6 µM | > 100 µM | 19.4 µM | 31.2 µM | – | – | – | – | – | –
C=C[C@H](OCc1ccccc1)[C@H]1OC(=O)C[C@H]1O | 29.1 µM | 25.1 µM | 17 µM | 19.2 µM | 23.4 µM | 17.2 µM | > 100 µM | 34.8 µM | 12.9 µM | – | – | – | – | – | –
C=C[C@@H](O)[C@@H]1OC(=O)C[C@@H]1OC | 5.36 µM | 2.74 µM | 4.52 µM | 9.2 µM | 7.17 µM | 19.6 µM | > 100 µM | 18.6 µM | 11.9 µM | – | – | – | – | – | –
C=C[C@@H](OCc1ccccc1)[C@@H]1OC(=O)C[C@@H]1OC | 9.85 µM | 4.42 µM | 26.4 µM | 16.9 µM | 12.1 µM | 18.7 µM | > 100 µM | 12.9 µM | 42.3 µM | – | – | – | – | – | –
CO[C@@H]1CC(=O)O[C@@H]1[C@@H](OC(=O)c1ccccc1)[C@H](COC(=O)c1ccccc1)OC(=O)c1ccccc1 | 15.9 µM | 3.36 µM | 15.3 µM | 13.2 µM | 8.58 µM | 14.1 µM | > 100 µM | 14.1 µM | 13.5 µM | > 1000 µg/mL | > 100 µg/mL | > 100 µg/mL | 40% | > 100 µg/mL | > 1000 µg/mL
C=C[C@H](OCc1ccccc1)[C@H]1OC(=O)C[C@H]1OC | 11.6 µM | 7.59 µM | 11.5 µM | 5.67 µM | 12.7 µM | 27.9 µM | > 100 µM | 34.4 µM | 12.6 µM | – | – | – | – | – | –
O=C1C[C@@H]2O[C@@H](CI)[C@@H](O)[C@@H]2O1 | 22.8 µM | 15.1 µM | 20.1 µM | 19.4 µM | 16.7 µM | 24.6 µM | > 100 µM | 26.2 µM | 17.7 µM | > 1000 µg/mL | > 100 µg/mL | > 100 µg/mL | inactive | > 100 µg/mL | > 1000 µg/mL
